IC50 data for 40 compounds are collected here from patent US10544143B2, “4-azaindole compounds” (BRISTOL-MYERS SQUIBB COMPANY, priority 2017, dated 2020).

One assay has as its target human TLR8 (Homo sapiens (Human), UniProt Q9NR97). In words: TLR8 inhibition reporter assay (HEK-Blue SEAP).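 Further: SEAP driven by IFN-β minimal promoter carrying NF-κB and AP-1 sites, compounds dosed 0.05 nM to 50 µM for 22 h, inhibition scaled between agonist-plus-DMSO and reference-inhibitor wells.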 The conditions noted are these: read-out: TLR8 IC50; HEK-Blue human TLR8 cells, R848 15.9 μM.
For the next assay, the target named is human TLR9 (Homo sapiens (Human), UniProt Q9NR96). In words: TLR9 inhibition reporter assay (HEK-Blue SEAP).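 Further: SEAP driven by an IFN-β minimal promoter with NF-κB and AP-1 sites, read after 22 h, compounds dosed 0.05 nM–50 µM, inhibition scaled between agonist plus DMSO and reference-inhibitor wells.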 The conditions noted are these: read-out: TLR9 IC50; HEK-Blue human TLR9 cells, ODN2006 5 nM.
Another assay deals with human TLR7 (Homo sapiens (Human), UniProt Q9NYK1). As to the kind of experiment: TLR7 inhibition reporter assay (HEK-Blue SEAP). It counts as cell-based. The conditions noted are these: HEK-Blue human TLR7 cells, gardiquimod 7.5 μM.
Chain of human TLR7 (Q9NYK1 27-1049): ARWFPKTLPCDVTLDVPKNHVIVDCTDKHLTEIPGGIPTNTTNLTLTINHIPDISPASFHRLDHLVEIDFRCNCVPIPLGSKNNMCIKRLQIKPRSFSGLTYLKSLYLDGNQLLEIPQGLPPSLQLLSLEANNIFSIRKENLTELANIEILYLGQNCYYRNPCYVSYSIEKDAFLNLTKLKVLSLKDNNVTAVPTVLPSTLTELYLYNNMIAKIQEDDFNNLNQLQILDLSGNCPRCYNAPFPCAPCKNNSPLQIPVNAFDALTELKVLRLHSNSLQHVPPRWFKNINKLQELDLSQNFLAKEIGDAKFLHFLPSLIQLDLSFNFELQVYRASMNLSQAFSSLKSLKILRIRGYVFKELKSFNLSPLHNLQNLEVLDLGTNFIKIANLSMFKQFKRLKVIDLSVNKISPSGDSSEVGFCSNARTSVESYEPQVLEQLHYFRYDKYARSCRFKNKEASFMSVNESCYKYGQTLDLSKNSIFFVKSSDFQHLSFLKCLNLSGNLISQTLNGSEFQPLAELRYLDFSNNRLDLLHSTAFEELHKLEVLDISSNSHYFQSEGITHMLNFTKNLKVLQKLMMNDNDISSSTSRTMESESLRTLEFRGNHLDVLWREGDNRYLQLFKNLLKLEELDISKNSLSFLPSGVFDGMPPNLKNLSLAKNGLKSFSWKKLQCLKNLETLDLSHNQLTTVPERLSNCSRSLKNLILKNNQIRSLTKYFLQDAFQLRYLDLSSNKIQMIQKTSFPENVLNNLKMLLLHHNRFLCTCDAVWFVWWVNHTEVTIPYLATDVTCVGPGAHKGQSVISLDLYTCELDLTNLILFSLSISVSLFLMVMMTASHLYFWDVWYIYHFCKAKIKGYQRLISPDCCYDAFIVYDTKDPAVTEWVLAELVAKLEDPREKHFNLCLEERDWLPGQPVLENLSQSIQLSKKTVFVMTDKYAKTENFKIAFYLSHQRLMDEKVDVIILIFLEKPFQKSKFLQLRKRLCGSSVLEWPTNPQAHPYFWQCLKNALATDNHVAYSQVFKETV

Chain of human TLR8 (Q9NR97 27-1041): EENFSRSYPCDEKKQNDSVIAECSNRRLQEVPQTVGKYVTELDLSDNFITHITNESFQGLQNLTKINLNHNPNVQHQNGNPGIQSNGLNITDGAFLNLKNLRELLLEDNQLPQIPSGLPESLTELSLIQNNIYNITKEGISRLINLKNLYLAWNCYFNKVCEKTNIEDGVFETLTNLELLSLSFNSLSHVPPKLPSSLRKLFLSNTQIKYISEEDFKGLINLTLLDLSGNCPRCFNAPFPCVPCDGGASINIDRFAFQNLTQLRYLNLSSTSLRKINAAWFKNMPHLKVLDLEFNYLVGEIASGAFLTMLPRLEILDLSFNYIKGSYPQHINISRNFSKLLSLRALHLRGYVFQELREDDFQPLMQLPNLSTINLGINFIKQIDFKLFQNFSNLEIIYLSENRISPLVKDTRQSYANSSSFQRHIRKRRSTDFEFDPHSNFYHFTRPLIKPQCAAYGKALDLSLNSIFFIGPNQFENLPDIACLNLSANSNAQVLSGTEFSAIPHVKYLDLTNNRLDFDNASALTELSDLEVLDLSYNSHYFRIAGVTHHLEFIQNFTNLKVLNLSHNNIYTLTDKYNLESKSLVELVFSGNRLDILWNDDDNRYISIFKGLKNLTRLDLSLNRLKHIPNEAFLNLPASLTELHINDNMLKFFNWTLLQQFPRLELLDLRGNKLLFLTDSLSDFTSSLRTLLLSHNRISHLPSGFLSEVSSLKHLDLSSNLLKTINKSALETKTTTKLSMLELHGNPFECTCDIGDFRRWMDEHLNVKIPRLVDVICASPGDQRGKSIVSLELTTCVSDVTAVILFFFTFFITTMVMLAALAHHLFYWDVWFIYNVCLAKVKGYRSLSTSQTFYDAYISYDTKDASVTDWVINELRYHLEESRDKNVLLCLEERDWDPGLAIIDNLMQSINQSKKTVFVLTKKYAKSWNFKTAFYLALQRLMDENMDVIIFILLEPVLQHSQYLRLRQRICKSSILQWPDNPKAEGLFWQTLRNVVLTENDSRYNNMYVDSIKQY
Chain of human TLR9 (Q9NR96 26-1032): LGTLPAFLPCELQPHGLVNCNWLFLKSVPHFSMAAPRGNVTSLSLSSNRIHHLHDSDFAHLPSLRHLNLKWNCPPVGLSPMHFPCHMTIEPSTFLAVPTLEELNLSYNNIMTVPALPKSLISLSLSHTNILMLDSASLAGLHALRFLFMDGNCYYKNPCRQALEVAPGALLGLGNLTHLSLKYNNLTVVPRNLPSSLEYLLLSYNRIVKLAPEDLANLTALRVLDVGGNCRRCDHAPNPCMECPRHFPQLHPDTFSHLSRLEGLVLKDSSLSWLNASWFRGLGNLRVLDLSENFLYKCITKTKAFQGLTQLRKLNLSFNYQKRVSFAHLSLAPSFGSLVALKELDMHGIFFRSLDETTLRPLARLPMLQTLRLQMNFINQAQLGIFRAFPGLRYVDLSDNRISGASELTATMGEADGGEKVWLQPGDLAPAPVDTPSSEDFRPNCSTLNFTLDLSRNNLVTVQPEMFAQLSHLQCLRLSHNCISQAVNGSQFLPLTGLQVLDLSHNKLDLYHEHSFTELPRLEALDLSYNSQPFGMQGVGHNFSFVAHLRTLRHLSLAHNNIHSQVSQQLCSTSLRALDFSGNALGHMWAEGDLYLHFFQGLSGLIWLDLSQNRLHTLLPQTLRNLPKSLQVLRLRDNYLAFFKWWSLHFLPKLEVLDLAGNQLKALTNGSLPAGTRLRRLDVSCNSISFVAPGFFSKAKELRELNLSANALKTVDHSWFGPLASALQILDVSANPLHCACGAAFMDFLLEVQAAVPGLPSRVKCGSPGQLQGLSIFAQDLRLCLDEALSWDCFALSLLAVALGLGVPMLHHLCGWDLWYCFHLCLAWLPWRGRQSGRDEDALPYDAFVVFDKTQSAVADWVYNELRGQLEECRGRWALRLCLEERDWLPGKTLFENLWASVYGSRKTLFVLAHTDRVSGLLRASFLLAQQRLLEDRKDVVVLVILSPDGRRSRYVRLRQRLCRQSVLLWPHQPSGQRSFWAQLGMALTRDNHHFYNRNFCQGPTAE

Turning to `Cc1c(-c2[nH]c3ccc(N4[C@H](C)CNC[C@H]4C)nc3c2C(C)C)cn2ncnc2c1C` [Example 861], the 50% inhibitory concentration (IC50) was found to be 4.2 nM on human TLR8, 5010 nM on human TLR9 and 0.31 nM against human TLR7.

As for `Cc1c(-c2[nH]c3ccc(N4C[C@@H](C)N(C(=O)CN(C)C)[C@@H](C)C4)nc3c2C(C)C)cn2ncnc2c1C` [Example 862], the IC50 was 2.2 nM at human TLR8, 7040 nM at human TLR9 and 0.29 nM against human TLR7.

For the compound `Cc1c(-c2[nH]c3ccc(N4[C@H](C)CN(C(=O)CN(C)C)C[C@H]4C)nc3c2C(C)C)cn2ncnc2c1C` [Example 863], the IC50 on human TLR8 was determined as 17 nM; at human TLR9, 6060 nM; on human TLR7, 0.52 nM.

On to `Cc1c(-c2[nH]c3ccc(N4[C@H](C)CN(C(=O)CCN(C)C)C[C@H]4C)nc3c2C(C)C)cn2ncnc2c1C` [Example 864], for which the 50% inhibitory concentration (IC50) on human TLR8 was 12 nM; at human TLR9, 5690 nM; against human TLR7, 1.5 nM.

`Cc1c(-c2[nH]c3ccc(N4[C@H](C)CN(C(C)C)C[C@H]4C)nc3c2C(C)C)cn2ncnc2c1C` [Example 865]: the IC50 on human TLR8 came out at 72 nM; at human TLR9, 8890 nM; at human TLR7, 1.3 nM.

Regarding `Cc1c(-c2[nH]c3ccc(N4[C@H](C)CN(CC(N)=O)C[C@H]4C)nc3c2C(C)C)cn2ncnc2c1C` [Example 866], the IC50 was 74 nM at human TLR8, 47600 nM at human TLR9 and 3.2 nM on human TLR7.

As for `Cc1c(-c2[nH]c3ccc(N4C[C@@H](C)N(CC(N)=O)[C@@H](C)C4)nc3c2C(C)C)cn2ncnc2c1C` [Example 867], the IC50 was 11 nM at human TLR8, more than 50000 nM at human TLR9 and 4.5 nM against human TLR7.

Consider `Cc1c(-c2[nH]c3ccc(N4C[C@@H](C)N(CCCS(C)(=O)=O)[C@@H](C)C4)nc3c2C(C)C)cn2ncnc2c1C` [Example 868], for which the concentration for half-maximal inhibition (IC50) on human TLR8 was 6.1 nM; at human TLR9, more than 50000 nM; at human TLR7 it was 12 nM.

As for `Cc1c(-c2[nH]c3ccc(N4[C@H](C)CN(CCCS(C)(=O)=O)C[C@H]4C)nc3c2C(C)C)cn2ncnc2c1C` [Example 869], the results for the IC50 on human TLR8, at human TLR9 and against human TLR7 were 34 nM, 40300 nM and 1.9 nM, respectively.

On to `CCN(C)CC(=O)N1CCN(c2ccc3[nH]c(-c4cn5ncnc5c(C)c4C)c(C(C)C)c3n2)CC1` [Example 870], for which the IC50 at human TLR8 came out at 3.3 nM; on human TLR9, 14400 nM; on human TLR7 it was 0.56 nM.

For the compound `CCN(CC)CC(=O)N1CCN(c2ccc3[nH]c(-c4cn5ncnc5c(C)c4C)c(C(C)C)c3n2)CC1` [Example 871], the IC50 at human TLR8 turned out to be 5.1 nM; at human TLR9 it was 12700 nM; on human TLR7, 1.6 nM.

On to `Cc1c(-c2[nH]c3ccc(N4CCN(C(=O)CN(C)C(C)C)CC4)nc3c2C(C)C)cn2ncnc2c1C` [Example 872], for which the IC50 worked out at 3.8 nM on human TLR8, 9540 nM at human TLR9 and 0.97 nM against human TLR7.

As to `CCCN(C)CC(=O)N1CCN(c2ccc3[nH]c(-c4cn5ncnc5c(C)c4C)c(C(C)C)c3n2)CC1` [Example 873], the IC50 came out at 1.8 nM at human TLR8, 12800 nM on human TLR9 and 3.1 nM on human TLR7.

As for `CCCCN(C)CC(=O)N1CCN(c2ccc3[nH]c(-c4cn5ncnc5c(C)c4C)c(C(C)C)c3n2)CC1` [Example 874], the IC50 on human TLR8 worked out at 5.3 nM; on human TLR9 it was 15500 nM; against human TLR7 it was 1.2 nM.

Regarding `Cc1c(-c2[nH]c3ccc(N4CCN(C(=O)CN(C)CC(C)C)CC4)nc3c2C(C)C)cn2ncnc2c1C` [Example 875], the IC50 was 3.2 nM on human TLR8, 40500 nM at human TLR9 and 6.6 nM against human TLR7.

Regarding `CCCCN(CC)CC(=O)N1CCN(c2ccc3[nH]c(-c4cn5ncnc5c(C)c4C)c(C(C)C)c3n2)CC1` [Example 876], the values for the IC50 at human TLR8, at human TLR9 and against human TLR7 were 517 nM, 13300 nM and 644 nM, respectively.

As to `Cc1c(-c2[nH]c3ccc(N4CCN(C(=O)CNC(C)(C)C)CC4)nc3c2C(C)C)cn2ncnc2c1C` [Example 877], the IC50 at human TLR8 is 1.6 nM; at human TLR9 it was 12600 nM; at human TLR7 it was 1.5 nM.

`Cc1c(-c2[nH]c3ccc(N4CCN(C(=O)CN(C)C(C)(C)C)CC4)nc3c2C(C)C)cn2ncnc2c1C` [Example 878]: the values for the IC50 on human TLR8, at human TLR9 and against human TLR7 were 2.2 nM, 9040 nM and 0.48 nM, respectively.

Consider `CCN(CC(=O)N1CCN(c2ccc3[nH]c(-c4cn5ncnc5c(C)c4C)c(C(C)C)c3n2)CC1)C(C)C` [Example 879], for which the IC50 stood at 3.4 nM on human TLR8, 7550 nM on human TLR9 and 1 nM against human TLR7.

As for `Cc1c(-c2[nH]c3ccc(N4CCN(C(=O)CN(CC(C)C)C(C)C)CC4)nc3c2C(C)C)cn2ncnc2c1C` [Example 880], the IC50 at human TLR8 was 30 nM; at human TLR9, 19300 nM; against human TLR7, 6.4 nM.

In the case of `Cc1c(-c2[nH]c3ccc(N4CCN(C(=O)CN(CC(C)C)CC(C)C)CC4)nc3c2C(C)C)cn2ncnc2c1C` [Example 881], the values for the IC50 on human TLR8, at human TLR9 and at human TLR7 were 68 nM, 43500 nM and 25 nM, respectively.

With `CCCCN(CC(=O)N1CCN(c2ccc3[nH]c(-c4cn5ncnc5c(C)c4C)c(C(C)C)c3n2)CC1)C(C)C` [Example 882], the results for the IC50 on human TLR8, on human TLR9 and against human TLR7 were 11 nM, 7760 nM and 3.3 nM, respectively.

As to `Cc1c(-c2[nH]c3ccc(N4CCN(C(=O)CN(C(C)C)C(C)C)CC4)nc3c2C(C)C)cn2ncnc2c1C` [Example 883], the IC50 came to 2.3 nM at human TLR8, 12500 nM on human TLR9 and 7.4 nM against human TLR7.

As to `Cc1c(-c2[nH]c3ccc(N4C[C@@H](C)N[C@H](C)C4)nc3c2C(C)C)cn2ncnc2c1C` [Example 884], the IC50 on human TLR8 is 0.17 nM; on human TLR9, 6500 nM; at human TLR7, 0.9 nM.

Take `Cc1c(-c2[nH]c3ccc(N4C[C@@H](C)N(C(=O)CN(C)C)[C@H](C)C4)nc3c2C(C)C)cn2ncnc2c1C` [Example 885]: the IC50 came out at 3.8 nM on human TLR8, 7850 nM on human TLR9 and 1.6 nM against human TLR7.

Take `Cc1c(-c2[nH]c3ccc(N4C[C@@H](C)N(C(=O)CCN(C)C)[C@H](C)C4)nc3c2C(C)C)cn2ncnc2c1C` [Example 886]: the IC50 on human TLR8 came out at 1.7 nM; on human TLR9 it was 2570 nM; against human TLR7, 2.8 nM.

`Cc1c(-c2[nH]c3ccc(N4CCN(C(=O)CN(C)C)[C@@H](C)C4)nc3c2C(C)C)cn2ncnc2c1C` [Example 887]: the results for the 50% inhibitory concentration (IC50) at human TLR8, on human TLR9 and against human TLR7 were 0.68 nM, 8120 nM and 0.5 nM, respectively.

`Cc1c(-c2[nH]c3ccc(N4C[C@@H](C)N(C(=O)CCN5CCC5)C[C@@H]4C)nc3c2C(C)C)cn2ncnc2c1C` [Example 892]: the half-inhibitory concentration (IC50) on human TLR8 was 1.4 nM; on human TLR9, 3280 nM; on human TLR7, 0.62 nM.

For `CCN(C)CC(=O)N1C[C@H](C)N(c2ccc3[nH]c(-c4cn5ncnc5c(C)c4C)c(C(C)C)c3n2)C[C@H]1C` [Example 893], the IC50 at human TLR8 was determined as 0.74 nM; on human TLR9 it was 7440 nM; against human TLR7, 0.34 nM.

Take `CCCN(C)CC(=O)N1C[C@H](C)N(c2ccc3[nH]c(-c4cn5ncnc5c(C)c4C)c(C(C)C)c3n2)C[C@H]1C` [Example 894]: the results for the half-maximal inhibitory concentration (IC50) at human TLR8, at human TLR9 and against human TLR7 were 0.89 nM, 10800 nM and 0.37 nM, respectively.

As to `CCN(CC)CC(=O)N1C[C@H](C)N(c2ccc3[nH]c(-c4cn5ncnc5c(C)c4C)c(C(C)C)c3n2)C[C@H]1C` [Example 895], the IC50 came to 1.1 nM on human TLR8, 7930 nM at human TLR9 and 0.74 nM at human TLR7.

In the case of `Cc1c(-c2[nH]c3ccc(N4C[C@@H](C)N(C(=O)CN5CC6(COC6)C5)C[C@@H]4C)nc3c2C(C)C)cn2ncnc2c1C` [Example 896], the values for the IC50 on human TLR8, at human TLR9 and on human TLR7 were 0.37 nM, 8440 nM and 0.69 nM, respectively.

As to `CCN(C)CC(=O)N1CCN(c2ccc3[nH]c(-c4cn5ncnc5c(C)c4C)c(C(C)C)c3n2)C[C@@H]1C` [Example 897], the IC50 on human TLR8 was determined as 1.5 nM; at human TLR9, 12000 nM; against human TLR7, 0.86 nM.

For `CCN(CC)CC(=O)N1CCN(c2ccc3[nH]c(-c4cn5ncnc5c(C)c4C)c(C(C)C)c3n2)C[C@@H]1C` [Example 898], the results for the IC50 at human TLR8, at human TLR9 and against human TLR7 were 3.2 nM, 17300 nM and 2.1 nM, respectively.

Consider `Cc1c(-c2[nH]c3ccc(N4CCN(C(=O)CN5CCCC5)[C@@H](C)C4)nc3c2C(C)C)cn2ncnc2c1C` [Example 899], for which the figures for the IC50 on human TLR8, on human TLR9 and against human TLR7 were 1.7 nM, 9780 nM and 1 nM, respectively.

`Cc1c(-c2[nH]c3ccc(N4CCN(C(=O)CN5CC6(COC6)C5)[C@@H](C)C4)nc3c2C(C)C)cn2ncnc2c1C` [Example 900]: the results for the IC50 at human TLR8, on human TLR9 and against human TLR7 were 1.4 nM, 15600 nM and 1.1 nM, respectively.

For the compound `Cc1c(-c2[nH]c3ccc(N4CCN(C(=O)CN5CC6(COC6)C5)C[C@@H]4C)nc3c2C(C)C)cn2ncnc2c1C` [Example 901], the IC50 on human TLR8 came to 0.15 nM; at human TLR9, 13300 nM; on human TLR7, 0.72 nM.

With `CCN(CC)CC(=O)N1CCN(c2ccc3[nH]c(-c4cn5ncnc5c(C)c4C)c(C(C)C)c3n2)[C@@H](C)C1` [Example 902], the IC50 at human TLR8 was 1.4 nM; at human TLR9 it was 15800 nM; against human TLR7, 1.1 nM.

`Cc1c(-c2[nH]c3ccc(N4CCN(C(=O)CN(C(C)C)C(C)C)C[C@@H]4C)nc3c2C(C)C)cn2ncnc2c1C` [Example 903]: the IC50 on human TLR8 was found to be 4.1 nM; on human TLR9, 35200 nM; against human TLR7 it was 3 nM.

With `Cc1c(-c2[nH]c3ccc(N4CCN(C(=O)CN(C)C(C)(C)C)[C@@H](C)C4)nc3c2C(C)C)cn2ncnc2c1C` [Example 904], the IC50 at human TLR8 came to 4.2 nM; on human TLR9, 14800 nM; against human TLR7, 1 nM.
